Measured values as given in patent publication US11400081B2, “Compounds” (The University of Sheffield, priority 2017, dated 2022).
No end group written: not given here.

Molecular target: T1, AM2 receptor (CALCRL+RAMP3) (Homo sapiens, UniProt O60896+Q16602)
T1 construct: host or cells: 1321N1
Test: AM2 receptor inhibition, LANCE TR-FRET cAMP agonist-antagonist competition assay
Type: cell-based
Conditions: inhibition of AM induced cAMP activation; 1321N1 cells transfected with CALCRL+RAMP3; read-out: AM2 pIC50 (converted)

T1 sequence (Q16602 23-461): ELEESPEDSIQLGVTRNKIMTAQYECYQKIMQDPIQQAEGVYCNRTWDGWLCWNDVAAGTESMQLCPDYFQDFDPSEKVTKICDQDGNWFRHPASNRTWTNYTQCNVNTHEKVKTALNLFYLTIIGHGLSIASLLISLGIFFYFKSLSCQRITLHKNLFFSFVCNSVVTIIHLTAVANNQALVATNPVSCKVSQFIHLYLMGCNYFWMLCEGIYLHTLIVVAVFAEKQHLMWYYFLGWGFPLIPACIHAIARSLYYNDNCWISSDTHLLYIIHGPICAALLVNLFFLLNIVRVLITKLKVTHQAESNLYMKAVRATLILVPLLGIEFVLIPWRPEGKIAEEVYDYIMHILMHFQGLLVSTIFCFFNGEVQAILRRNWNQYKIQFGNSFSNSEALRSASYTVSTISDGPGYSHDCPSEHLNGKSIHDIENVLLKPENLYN
T1 sequence (O60896 24-148): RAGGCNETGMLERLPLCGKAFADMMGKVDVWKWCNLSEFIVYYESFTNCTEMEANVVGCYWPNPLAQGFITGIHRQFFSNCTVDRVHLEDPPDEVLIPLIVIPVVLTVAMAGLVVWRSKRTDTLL

Compound | IC50 [nM]
CC(c1ccccc1CN(CC(=O)Nc1ccc2c(c1)CC1(C2)C(=O)Nc2ncccc21)C(=O)C(C)(C)C)N1CCC1 (centres unmarked) [Example 25, N-(2-(1-(Azetidin-1-yl)ethyl)benzyl)-N-(2-oxo-2-((2′-oxo-1,1′,2′,3-tetrahydrospiro[indene-2,3′-pyrrolo[2,3-b]pyridin]-5-yl)amino)ethyl)pivalamide] | 75.9
CC(=N)NCc1ccccc1CN(CC(=O)Nc1ccc2c(c1)CC1(C2)C(=O)Nc2ncccc21)C(=O)C(C)(C)C (centres unmarked) [Example 42, N-(2-(Acetimidamidomethyl)benzyl)-N-(2-oxo-2-((2′-oxo-1,1′,2′,3-tetrahydrospiro[indene-2,3′-pyrrolo[2,3-b]pyridin]-5-yl)amino)ethyl)pivalamide] | 135
CNCc1cccc(F)c1CN(CC(=O)Nc1ccc2c(c1)CC1(C2)C(=O)Nc2ncccc21)C(=O)C(C)(C)C (centres unmarked) [Example 56, N-(2-Fluoro-6-((methylamino)methyl)benzyl)-N-(2-oxo-2-((2′-oxo-1,1′,2′,3-tetrahydrospiro[indene-2,3′-pyrrolo[2,3-b]pyridin]-5-yl)amino)ethyl)pivalamide] | 151
CNCc1ccccc1CN(C(=O)C(C)(C)C)[C@@H](C)C(=O)Nc1ccc2c(c1)CC1(C2)C(=O)Nc2ncccc21 (stereo partly drawn) [Example 34, N-(2-((Methylamino)methyl)benzyl)-N-((2S)-1-oxo-1-((2′-oxo-1,1′,2′,3-tetrahydrospiro[indene-2,3′-pyrrolo[2,3-b]pyridin]-5-yl)amino)propan-2-yl)pivalamide] | 12.3
CNC(C)c1ccccc1CN(CC(=O)Nc1ccc2c(c1)CC1(C2)C(=O)Nc2ncccc21)C(=O)C(C)(C)C (centres unmarked) [Example 23, N-(2-(1-(Methylamino)ethyl)benzyl)-N-(2-oxo-2-((2′-oxo-1,1′,2′,3-tetrahydrospiro[indene-2,3′-pyrrolo[2,3-b]pyridin]-5-yl)amino)ethyl)pivalamide] | 13.2

The next lines start with the values.

IC50 [nM] | Compound
24 | CNCc1ccccc1CN(CC(=O)Nc1ccc2c(c1)CC1(C2)C(=O)Nc2ncccc21)C(=O)C(C)(C)c1ccc(CN2CCNCC2)cc1 (centres unmarked) [Example 91, 2-Methyl-N-(2-((methylamino)methyl)benzyl)-N-(2-oxo-2-((2′-oxo-1,1′,2′,3-tetrahydrospiro[indene-2,3′-pyrrolo[2,3-b]pyridin]-5-yl)amino)ethyl)-2-(4-(piperazin-1-ylmethyl)phenyl)propanamide]
7.08 | CNCc1ccccc1CN(CC(=O)Nc1ccc2c(c1)CC1(C2)C(=O)Nc2ncccc21)C(=O)c1cscn1 (centres unmarked) [Example 60, N-(2-((Methylamino)methyl)benzyl)-N-(2-oxo-2-((2′-oxo-1,1′,2′,3-tetrahydrospiro[indene-2,3′-pyrrolo[2,3-b]pyridin]-5-yl)amino)ethyl)thiazole-4-carboxamide]
33.1 | CNCc1ccccc1CN(CC(=O)Nc1ccc2c(c1)CC1(C2)C(=O)Nc2ncccc21)C(=O)C1CN(C(C)=O)C1 (centres unmarked) [Example 68, 1-(Acetyl)-N-[[2-(methylaminomethyl)phenyl]methyl]-N-[2-oxo-2-[(2-oxospiro[1H-pyrrolo[2,3-b]pyridine-3,2′-indane]-5′-yl)amino]ethyl]azetidine-3-carboxamide]
148 | CNCc1ccccc1CN(CC(=O)Nc1ccc2c(c1)CC1(C2)C(=O)Nc2ncccc21)C(=O)C1CCNCC1 (centres unmarked) [Example 88, N-(2-((Methylamino)methyl)benzyl)-N-(2-oxo-2-((2′-oxo-1,1′,2′,3-tetrahydrospiro[indene-2,3′-pyrrolo[2,3-b]pyridin]-5-yl)amino)ethyl)piperidine-4-carboxamide]
5.5 | CNCc1ccccc1CN(CC(=O)Nc1ccc2c(c1)CC1(C2)C(=O)Nc2ncccc21)C(=O)C12CC(C1)C2 (centres unmarked) [Example 78, N-(2-((methylamino)methyl)benzyl)-N-(2-oxo-2-((2′-oxo-1,1′,2′,3-tetrahydrospiro[indene-2,3′-pyrrolo[2,3-b]pyridin]-5-yl)amino)ethyl)bicyclo[1.1.1]pentane-1-carboxamide 2,2,2-trifluoroacetate]

System: human pancreatic cancer cells
Test: not given
Conditions: local injection directly into tumours, pancreatic cancer model; cited from earlier work

Compound | tumour size compared to controls
AM22-52: "the AM peptide antagonist (AM22-52)"; "peptide and antibody AM2 receptor inhibitors are known such as AM22-52" (TVQKLAHQIYQFTDKDKDNVAPRSKISPQGY; ends and bridges not checked; UniProt P35318 116-146, looked up, fragment) | reduced tumour size significantly
